Measured values: patent publication US9732094B2, “Arylquinazolines” (Merck Patent GmbH, priority 2013, dated 2017)
Read-outs that look alike come from different tables or passages of the source. Values belong to the molecule of their own block, whether it stands above or below them.

How the values were obtained:
DNA-PK = DNA-PK (Homo sapiens (Human), UniProt P78527); assay: DNA-PK assay (biochemical), flashplate 33P-ATP kinase assay
Procedure, shortened: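 Radiometric kinase reaction in streptavidin-coated flashplates, stopped with 200 mM EDTA, then 30 min room-temperature incubation and saline washes.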

Kv11.1 (hERG) = Kv11.1 (hERG) (Homo sapiens (Human), UniProt Q12809); assay: Kv11.1 (hERG) ion channel activity (patch clamp assay), HEK293 cells transfected with hERG gene
Kv11.1 (hERG), sequence (Q12809 whole entry): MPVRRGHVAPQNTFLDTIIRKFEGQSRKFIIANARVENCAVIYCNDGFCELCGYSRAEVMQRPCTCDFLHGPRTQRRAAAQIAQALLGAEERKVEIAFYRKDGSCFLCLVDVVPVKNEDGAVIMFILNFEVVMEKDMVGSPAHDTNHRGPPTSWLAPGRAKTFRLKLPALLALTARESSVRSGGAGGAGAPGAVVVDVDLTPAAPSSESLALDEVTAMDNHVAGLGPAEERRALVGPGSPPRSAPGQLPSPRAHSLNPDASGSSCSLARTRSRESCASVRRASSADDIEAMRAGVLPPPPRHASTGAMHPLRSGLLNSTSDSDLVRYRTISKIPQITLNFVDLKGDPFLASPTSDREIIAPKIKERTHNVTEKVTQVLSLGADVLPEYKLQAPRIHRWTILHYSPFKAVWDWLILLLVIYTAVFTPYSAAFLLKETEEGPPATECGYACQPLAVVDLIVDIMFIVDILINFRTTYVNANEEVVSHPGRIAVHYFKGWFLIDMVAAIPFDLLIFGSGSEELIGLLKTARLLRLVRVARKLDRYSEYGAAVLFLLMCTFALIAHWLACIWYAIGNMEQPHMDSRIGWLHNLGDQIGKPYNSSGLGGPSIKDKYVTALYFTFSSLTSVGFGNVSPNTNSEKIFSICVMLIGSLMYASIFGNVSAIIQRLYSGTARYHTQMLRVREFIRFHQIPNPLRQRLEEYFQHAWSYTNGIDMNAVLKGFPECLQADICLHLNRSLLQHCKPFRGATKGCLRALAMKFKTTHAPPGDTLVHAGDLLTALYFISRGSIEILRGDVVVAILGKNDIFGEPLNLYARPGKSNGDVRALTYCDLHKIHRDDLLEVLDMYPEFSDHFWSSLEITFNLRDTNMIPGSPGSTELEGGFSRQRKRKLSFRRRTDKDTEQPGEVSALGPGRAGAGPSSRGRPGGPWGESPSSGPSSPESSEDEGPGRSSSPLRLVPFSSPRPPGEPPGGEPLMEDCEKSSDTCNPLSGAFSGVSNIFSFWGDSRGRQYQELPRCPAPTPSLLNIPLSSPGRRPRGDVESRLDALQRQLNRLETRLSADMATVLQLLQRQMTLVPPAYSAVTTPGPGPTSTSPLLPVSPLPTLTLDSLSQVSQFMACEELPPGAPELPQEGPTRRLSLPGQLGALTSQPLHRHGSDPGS

[1] = target: DNA-PK phosphorylation at serine 2056 (Homo sapiens (Human), UniProt P78527); assay: DNA-PK phosphorylation at serine 2056 (cellular), bleomycin-treated HCT116 cells, ELISA; assay type: cell-based; settings: HCT116 cells, read-out: IC50 pDNA-PK
Procedure, shortened: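 Chemiluminescent ELISA quantified DNA-PK Ser2056 phosphorylation relative to total DNA-PKcs in HCT116 cells. Cells received compounds together with 10 μM bleomycin for 6 h; DMSO served as blank.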

[2] = Ki [Kv1.11 hERG], patch clamp, HEK293 transfected with hERG gene
[3] = cellular, 10 μM bleomycin, six hours
[4] = read-out: Ki [Kv1.11 hERG], patch clamp, HEK293 transfected with hERG gene
[5] = read-out: Ki [Kv1.11 hERG], Table 5

- IC50 (DNA-PK; enzymatic, 5 μM ATP): 0.007 to 0.03 µM
- IC50 [1, 3]: 0.5 to 5 µM
Compound: CCOc1ccc(C(O)c2ccc(F)c(-c3ncnc4cc(N5CCOCC5)ccc34)c2)nn1 (stereo not drawn) [Example 134, (6-Ethoxy-pyridazin-3-yl)-[4-fluoro-3-(7-morpholin-4-yl-quinazolin-4-yl)-phenyl]methanol]
- Ki (Kv11.1 (hERG); [2]): 10 to 15 µM

- IC50 (DNA-PK; Table 5): 0.007 to 0.03 µM
- IC50 ([1]; Table 5): 10 to 30 µM
Compound: OC(c1ccc(F)c(-c2ncnc3cc(C4=CCOCC4)ccc23)c1)c1nccs1 (stereo not drawn) [Example 139, {3-[7-(3,6-Dihydro-2H-pyran-4-yl)-quinazolin-4-yl]-4-fluoro-phenyl}-thiazol-2-ylmethanol]
- Ki (Kv11.1 (hERG); [5]): > 25 µM

- IC50 (DNA-PK; Table 5): > 0.03 µM
- IC50 ([1]; Table 5): 10 to 30 µM
Compound: OC(c1ccc(F)c(-c2ncnc3cc(N4CCOCC4)ncc23)c1)c1nccs1 (stereo not drawn) [Example 140, [4-Fluoro-3-(7-morpholin-4-yl-pyrido[4,3-d}-pyrimidin-4-yl)-phenyl]thiazol-2-yl-methanol]
- Ki (Kv11.1 (hERG); Ki [Kv1.11 hERG], Table 5): 15 to 25 µM

- IC50 (DNA-PK; Table 5): > 0.03 µM
- IC50 ([1]; Table 5): 10 to 30 µM
Compound: OCc1csc(C(O)c2cc(-c3ncnc4cc(N5CCOCC5)ncc34)c(F)cc2Cl)n1 (stereo not drawn) [Example 141, [2-chloro-4-fluoro-5-(7-morpholin-4-ylpyrido[4,3-d]pyrimidin-4-yl)phenyl]-(4-hydroxymethylthiazol-2-yl)methanol]
- Ki (Kv11.1 (hERG); Ki [Kv1.11 hERG], Table 5): 15 to 25 µM

- IC50 (DNA-PK; Table 5): < 0.003 µM
- IC50 ([1]; Table 5): 0.5 to 5 µM
Compound: OCc1csc(C(O)c2cc(-c3ncnc4cc(N5CCOCC5)ccc34)c(F)cc2Cl)n1 (stereo not drawn) [Example 142, [2-Chloro-4-fluoro-5-(7-morpholin-4-yl-quinazolin-4-yl)-phenyl]-(4-hydroxymethyl-thiazol-2-yl)-methanol]
- Ki (Kv11.1 (hERG); [5]): < 10 µM

- IC50 (DNA-PK; Table 5): 0.007 to 0.03 µM
- IC50 ([1]; Table 5): 10 to 30 µM
Compound: OC(c1cccc(-c2ncnc3cc(N4CCOCC4)ccc23)c1)c1nccs1 (stereo not drawn) [Example 148, [3-(7-Morpholin-4-ylquinazolin-4-yl)-phenyl]thiazol-2-yl-methanol]
- Ki (Kv11.1 (hERG); Ki [Kv1.11 hERG], Table 5): 10 to 15 µM

- IC50 (DNA-PK; Table 5): 0.007 to 0.03 µM
- IC50 ([1]; Table 5): 5 to 10 µM
Compound: OC(c1cccc(-c2ncnc3cc(N4CCOCC4)ccc23)c1)c1nccs1 (stereo not drawn) [Example 150, [3-(7-Morpholin-4-ylquinazolin-4-yl)-phenyl]thiazol-2-yl-methanol]
- Ki (Kv11.1 (hERG); [5]): > 25 µM

- IC50 (DNA-PK; Table 5): 0.007 to 0.03 µM
- IC50 ([1]; Table 5): 10 to 30 µM
Compound: CC(O)(c1cncc(-c2ncnc3cc(N4CCOCC4)ccc23)c1)c1nccs1 (stereo not drawn) [Example 152, 1-[5-(7-Morpholin-4-ylquinazolin-4-yl)-pyridin-3-yl]-1-thiazol-2-ylethanol]
- Ki (Kv11.1 (hERG); [5]): > 25 µM

- IC50 (DNA-PK; Table 5): 0.007 to 0.03 µM
- IC50 ([1]; Table 5): 10 to 30 µM
Compound: OC(c1cccc(-c2ncnc3cc(N4CCOCC4)ccc23)c1)(c1nccs1)C(F)(F)F (stereo not drawn) [Example 159, 2,2,2-Trifluoro-1-[3-(7-morpholin-4-yl-quinazolin-4-yl)-phenyl]-1-thiazol-2-ylethanol]
- Ki (Kv11.1 (hERG); [5]): < 10 µM

- IC50 (DNA-PK; Table 5): 0.007 to 0.03 µM
- IC50 ([1]; Table 5): 10 to 30 µM
Compound: CC(O)(c1ccc(F)c(-c2ncnc3cc(N4CCOCC4)ccc23)c1)c1nccs1 (stereo not drawn) [Example 163, 1-[4-Fluoro-3-(7-morpholin-4-yl-quinazolin-4-yl)-phenyl]-1-thiazol-2-ylethanol]
- Ki (Kv11.1 (hERG); Ki [Kv1.11 hERG], Table 5): 10 to 15 µM

- IC50 (DNA-PK; Table 5): < 0.003 µM
- IC50 ([1]; Table 5): 0.5 to 5 µM
Compound: OC(c1cc(F)c(F)c(-c2ncnc3cc(N4CCOCC4)ccc23)c1)c1nccs1 (stereo not drawn) [Example 171, [3,4-Difluoro-5-(7-morpholin-4-yl-quinazolin-4-yl)-phenyl]thiazol-2-yl-methanol]
- Ki (Kv11.1 (hERG); [5]): < 10 µM

Further lines, the molecule ahead of its results:

Compound: N#Cc1ccc(C(O)c2cc(-c3ncnc4cc(N5CCOCC5)ccc34)c(F)cc2Cl)nn1 (stereo not drawn) [Example 118, 6-{[2-Chloro-4-fluoro-5-{7-morpholin-4-yl-quinazolin-4-yl)-phenyl]hydroxy-methyl}pyridazine-3-carbonitrile]
- IC50 (DNA-PK; enzymatic, 5 μM ATP): 0.003 to 0.007 µM
- Ki (Kv11.1 (hERG); [2]): 15 to 25 µM
- IC50 [1, 3]: 0.5 to 5 µM

Compound: N#CCOc1ccc(C(O)c2cc(-c3ncnc4cc(N5CCOCC5)ccc34)c(F)cc2Cl)nn1 (stereo not drawn) [Example 119, (6-{(2-Chloro-4-fluoro-5-(7-morpholin-4-yl-quinazolin-4-yl)-phenyl] hydroxy-methyl}pyridazin-3-yl-oxy)acetonitrile]
- IC50 (DNA-PK; enzymatic, 5 μM ATP): < 0.003 µM
- Ki (Kv11.1 (hERG); [2]): 15 to 25 µM
- IC50 [1, 3]: < 0.5 µM

Compound: COc1ccc(C(O)c2cc(-c3ncnc4cc(N5CCOCC5)ccc34)c(F)cc2F)cc1 (stereo not drawn) [Example 120, [2.4-Difluoro-5-(7-morpholin-4-yl-quinazolin-4-yl)-phenyl]-(4-methoxyphenyl)-methanol]
- IC50 (DNA-PK; enzymatic, 5 μM ATP): 0.007 to 0.03 µM
- Ki (Kv11.1 (hERG); [4]): < 10 µM
- IC50 [1, 3]: 0.5 to 5 µM

Compound: OC(c1ccc(F)c(-c2ncnc3cc(N4CCOCC4)ccc23)c1)c1ccc(OC(F)F)nn1 (stereo not drawn) [Example 121, (6-Difluoro-methoxy-pyridazin-3-yl)-[4-fluoro-3-(7-morpholin-4-yl-quinazolin-4-yl)-phenyl]methanol]
- IC50 (DNA-PK; enzymatic, 5 μM ATP): 0.003 to 0.007 µM
- Ki (Kv11.1 (hERG); [2]): 15 to 25 µM
- IC50 [1, 3]: 0.5 to 5 µM

Compound: C#CC(O)(c1ccc(OC)nn1)c1cc(-c2ncnc3cc(N4CCOCC4)ccc23)c(F)cc1Cl (stereo not drawn) [Example 122, 1-[2-Chloro-4-fluoro-5-(7-morpholin-4-yl-quinazolin-4-yl)-phenyl]-1-(6-methoxy-pyridazin-3-yl)-prop-2-yn-1-ol]
- IC50 (DNA-PK; enzymatic, 5 μM ATP): 0.007 to 0.03 µM
- Ki (Kv11.1 (hERG); [2]): 10 to 15 µM
- IC50 [1, 3]: 0.5 to 5 µM

Compound: COc1ccc(C(O)(c2cc(-c3ncnc4cc(N5CCOCC5)ccc34)c(F)cc2Cl)C(F)F)nn1 (stereo not drawn) [Example 123, 1-[2-Chloro-4-fluoro-5-(7-morpholin-4-yl-quinazolin-4-yl)-phenyl]-2,2-difluoro-1-(6-methoxy-pyridazin-3-yl)-ethanol]
- IC50 (DNA-PK; enzymatic, 5 μM ATP): 0.007 to 0.03 µM
- Ki (Kv11.1 (hERG); [4]): > 25 µM
- IC50 [1, 3]: 10 to 30 µM

Compound: COc1ccc(C(O)c2cc(-c3ncnc4cc(N5CCOCC5)ccc34)c(F)cc2F)c(F)c1 (stereo not drawn) [Example 124, [2,4-Difluoro-5-(7-morpholin-4-yl-quinazolin-4-yl)-phenyl]-(2-fluoro-4-methoxy-phenyl)methanol]
- IC50 (DNA-PK; enzymatic, 5 μM ATP): 0.007 to 0.03 µM
- Ki (Kv11.1 (hERG); [4]): < 10 µM
- IC50 [1, 3]: 0.5 to 5 µM

Compound: COc1ccc(C(C)(O)c2cc(-c3ncnc4cc(N5CCOCC5)ccc34)c(F)cc2Cl)nn1 (stereo not drawn) [Example 125, 1-[2-Chloro-4-fluoro-5-(7-morpholin-4-yl-quinazolin-4-yl)-phenyl]-1-(6-methoxy-pyridazin-3-yl)-ethanol]
- IC50 (DNA-PK; enzymatic, 5 μM ATP): 0.003 to 0.007 µM
- Ki (Kv11.1 (hERG); [2]): 15 to 25 µM
- IC50 [1, 3]: 10 to 30 µM

Compound: COc1ccc(C(O)c2cc(-c3ncnc4cc(N5CCOCC5)sc34)c(F)cc2Cl)nn1 (stereo not drawn) [Example 128, (2-Chloro-4-fluoro-5-(6-morpholin-4-ylthieno[3,2-d}-pyrimidin-4-yl)-phenyl]-(6-methoxy-pyridazin-3-yl)-methanol]
- IC50 (DNA-PK; enzymatic, 5 μM ATP): < 0.003 µM
- Ki (Kv11.1 (hERG); [2]): 15 to 25 µM
- IC50 [1, 3]: 0.5 to 5 µM

Compound: COc1ccc(C(O)c2cc(-c3nc(Cl)nc4cc(N5CCOCC5)ccc34)c(F)cc2Cl)nn1 (stereo not drawn) [Example 132, [2-Chloro-5-(2-chloro-7-morpholin-4-yl-quinazolin-4-yl)-4-fluorophenyl]-(6-methoxy-pyridazin-3-yl)-methanol]
- IC50 (DNA-PK; enzymatic, 5 μM ATP): 0.003 to 0.007 µM
- Ki (Kv11.1 (hERG); [4]): > 25 µM
- IC50 [1, 3]: 0.5 to 5 µM

Compound: CN(C)CCOc1ccc(C(O)c2ccc(F)c(-c3ncnc4cc(N5CCOCC5)ccc34)c2)nn1 (stereo not drawn) [Example 133, [6-(2-Dimethyl-amino-ethoxy)-pyridazin-3-yl]-[4-fluoro-3-(7-morpholin-4-yl-quinazolin-4-yl)-phenyl]methanol]
- IC50 (DNA-PK; enzymatic, 5 μM ATP): 0.007 to 0.03 µM
- Ki (Kv11.1 (hERG); [4]): > 25 µM
- IC50 [1, 3]: 5 to 10 µM

Compound: CNCc1csc(C(O)c2cc(-c3ncnc4cc(N5CCOCC5)ccc34)c(F)cc2Cl)n1 (stereo not drawn) [Example 143, [2-Chloro-4-fluoro-5-(7-morpholin-4-ylquinazolin-4-yl)phenyl]-(4-methylaminomethylthiazol-2-yl)methanol]
- IC50 (DNA-PK; Table 5): 0.007 to 0.03 µM
- Ki (Kv11.1 (hERG); Ki [Kv1.11 hERG], Table 5): 10 to 15 µM
- IC50 ([1]; Table 5): 5 to 10 µM
